Reference: the supplement of paper PMC10627819

What was measured:
[1] = system: B. subtilis 168; test: fitness (endpoint OD595 vs no drug) (fraction); higher = more growth
In short: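 Fitness was defined as the optical density at the transition into stationary phase relative to the robust mean of no-drug control wells. Values were capped at 1. Cultures were started at OD595 0.01 in 384-well plates (30 µl, or 55 µl for S. pneumoniae) in TSB, LB Lennox or CY at 37 °C. OD595 was recorded every 30 min over 14 h, with the first reading subtracted as background.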

[2] = system: B. subtilis 168; test: Bliss interaction score (quartile over a dose matrix) (fitness difference); higher = more antagonism (negative = synergy)
In short: (§1)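 Growth in each well was taken as OD595 at entry into stationary phase. Dividing by the plate's robust no-drug mean and capping at 1 gave fitness, and single-drug fitness was inferred from the combination data. The Bliss score, observed minus product-expected fitness, is summarised by quartiles over technical, biological and donor/recipient replicates.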

[3] = system: S. aureus DSM 20231; test: as above
In short: as §1

[4] = system: S. aureus Newman; test: as above
In short: as §1

[5] = system: S. pneumoniae D39V; test: as above
In short: as §1
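Wherever Bliss interaction score (quartile over a dose matrix) is given: first quartile when negative (synergy) and third quartile when positive (antagonism).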

C[C@@H]1O[C@@H]1P(=O)(O)O [Fosfomycin] + CO[C@@H]1[C@@H](OC(N)=O)[C@@H](O)[C@H](Oc2ccc3c(O)c(NC(=O)c4ccc(O)c(CC=C(C)C)c4)c(=O)oc3c2C)OC1(C)C [Novobiocin]
fitness, [1]
Details | first compound 1.562 µg/mL | first compound 3.124 µg/mL | first compound 6.248 µg/mL
partner 0.0125 µg/mL | 0.712 | 0.609 | 0.44
partner 0.025 µg/mL | 0.658 | 0.586 | 0.408
partner 0.05 µg/mL | 0.792 | 0.69 | 0.47

fitness, [1], one replicate
Details | partner 0.1 µg/mL | partner 0.125 µg/mL | partner 0.2 µg/mL | partner 0.25 µg/mL | partner 0.5 µg/mL
first compound 1.562 µg/mL | 0.746 | 0.785 | 0.793 | 0.7 | 0.12
first compound 3.124 µg/mL | 0.698 | 0.782 | 0.691 | 0.637 | 0.0455
first compound 6.248 µg/mL | 0.531 | 0.551 | 0.507 | 0.36 | 0.0252

Details | Bliss interaction score
[2] | -0.0536
[3] | 0.1
[4] | 0.0635
[5] | -0.102

O=C(O)c1cn(C2CC2)c2cc(N3CCNCC3)c(F)cc2c1=O [Ciprofloxacin] + CO[C@@H]1[C@@H](OC(N)=O)[C@@H](O)[C@H](Oc2ccc3c(O)c(NC(=O)c4ccc(O)c(CC=C(C)C)c4)c(=O)oc3c2C)OC1(C)C [Novobiocin]
fitness, [1]
Details | first compound 0.0098 µg/mL | first compound 0.0195 µg/mL | first compound 0.039 µg/mL
partner 0.0125 µg/mL | 0.905 | 0.769 | 0.127
partner 0.025 µg/mL | 0.92 | 0.723 | 0.034
partner 0.05 µg/mL | 0.964 | 0.726 | 0.0487

fitness, [1], one replicate
Details | partner 0.1 µg/mL | partner 0.125 µg/mL | partner 0.2 µg/mL | partner 0.25 µg/mL | partner 0.5 µg/mL
first compound 0.0098 µg/mL | 0.926 | 0.84 | 0.915 | 0.697 | 0.15
first compound 0.0195 µg/mL | 0.727 | 0.78 | 0.71 | 0.448 | 0.066
first compound 0.039 µg/mL | 0.127 | 0.0634 | 0.089 | 0.0302 | 0.0454

Details | Bliss interaction score
[2] | -0.183
[3] | -0.0685
[4] | -0.115
[5] | -0.161

COc1cccc2c1C(=O)c1c(O)c3c(c(O)c1C2=O)C[C@@](O)(C(=O)CO)C[C@@H]3O[C@H]1C[C@H](N)[C@H](O)[C@H](C)O1 [Doxorubicin] + CO[C@@H]1[C@@H](OC(N)=O)[C@@H](O)[C@H](Oc2ccc3c(O)c(NC(=O)c4ccc(O)c(CC=C(C)C)c4)c(=O)oc3c2C)OC1(C)C [Novobiocin]
fitness, [1]
Details | first compound 0.625 µg/mL | first compound 1.25 µg/mL | first compound 2.5 µg/mL
partner 0.0125 µg/mL | 0.984 | 0.931 | 0.787
partner 0.025 µg/mL | 0.971 | 0.893 | 0.727
partner 0.05 µg/mL | 0.993 | 0.938 | 0.631

fitness, [1], one replicate
Details | partner 0.1 µg/mL | partner 0.125 µg/mL | partner 0.2 µg/mL | partner 0.25 µg/mL | partner 0.5 µg/mL
first compound 0.625 µg/mL | 0.972 | 0.912 | ≥ 1 | 0.793 | 0.516
first compound 1.25 µg/mL | 0.99 | 0.901 | 0.971 | 0.785 | 0.305
first compound 2.5 µg/mL | 0.571 | 0.834 | 0.588 | 0.386 | 0.0091

Details | Bliss interaction score
[2] | 0.0565
[3] | -0.0601
[4] | -0.082
[5] | -0.106

CO/N=C(\C(=O)N[C@@H]1C(=O)N2C(C(=O)O)=C(COC(C)=O)CS[C@H]12)c1csc(N)n1 [Cefotaxime] + CO[C@@H]1[C@@H](OC(N)=O)[C@@H](O)[C@H](Oc2ccc3c(O)c(NC(=O)c4ccc(O)c(CC=C(C)C)c4)c(=O)oc3c2C)OC1(C)C [Novobiocin]
fitness, [1], one replicate
Details | first compound 0.00775 µg/mL | first compound 0.0155 µg/mL | first compound 0.031 µg/mL | first compound 0.0625 µg/mL | first compound 0.125 µg/mL | first compound 0.25 µg/mL
partner 0.05 µg/mL | 0.908 | 0.735 | 0.565 | – | – | –
partner 0.1 µg/mL | 0.955 | 0.715 | 0.563 | – | – | –
partner 0.125 µg/mL | – | – | – | 0.291 | 0.169 | 0.117
partner 0.2 µg/mL | 0.945 | 0.676 | 0.51 | – | – | –
partner 0.25 µg/mL | – | – | – | 0.112 | 0.0673 | 0.0477
partner 0.5 µg/mL | – | – | – | 0.0592 | 0.0517 | 0.0477

fitness, [1]
Details | first compound 0.5 µg/mL | first compound 1 µg/mL | first compound 2 µg/mL
partner 0.0125 µg/mL | 0.27 | 0.122 | 0.127
partner 0.025 µg/mL | 0.275 | 0.135 | 0.131
partner 0.05 µg/mL | 0.276 | 0.153 | 0.142

Details | Bliss interaction score
[2] | 0.097
[3] | 0.0739
[4] | 0.0646
[5] | -0.126
